Measurements reported in ChEMBL document CHEMBL3792360, “Antibacterial activity of Mannich bases derived from 2-naphthols, aromatic aldehydes and secondary aliphatic amines” (2016).
Converted amounts (≈) assume the structure as drawn.

Assays:
Assay type in all cases: functional
Escherichia coli [1] = assay: Antibacterial activity against Escherichia coli ATCC 35218 after 16 to 20 hrs by broth microdilution method
Escherichia coli [2] = assay: Antibacterial activity against Escherichia coli ATCC 25922 after 16 to 20 hrs by broth microdilution method
Enterococcus faecalis = assay: Antibacterial activity against Enterococcus faecalis ATCC 25912 after 16 to 20 hrs by broth microdilution method
Pseudomonas aeruginosa = assay: Antibacterial activity against Pseudomonas aeruginosa CIP 82118 after 16 to 20 hrs by broth microdilution method
Staphylococcus aureus [3] = assay: Antibacterial activity against Staphylococcus aureus […] after 16 to 20 hrs by broth microdilution method
Enterobacter cloacae = assay: Antibacterial activity against Enterobacter cloacae CIP 103475 after 16 to 20 hrs by broth microdilution method
Citrobacter freundii = assay: Antibacterial activity against Citrobacter freundii CIP 5732 after 16 to 20 hrs by broth microdilution method
Klebsiella pneumoniae = assay: Antibacterial activity against Klebsiella pneumoniae CIP 53153 after 16 to 20 hrs by broth microdilution method
Proteus vulgaris = assay: Antibacterial activity against Proteus vulgaris CIP 104989 after 16 to 20 hrs by broth microdilution method
Staphylococcus aureus [4] = assay: Antibacterial activity against methicillin-resistant Staphylococcus aureus ATCC 43300 after 16 to 20 hrs by broth microdilution method

| SMILES | MIC (Escherichia coli [1]) | MIC (Escherichia coli [2]) | MIC (Enterococcus faecalis) | MIC (Pseudomonas aeruginosa) | MIC (Staphylococcus aureus [3]) | MIC (Enterobacter cloacae) | MIC (Citrobacter freundii) | MIC (Klebsiella pneumoniae) | MIC (Proteus vulgaris) | MIC (Staphylococcus aureus [4]) |
| --- | --- | --- | --- | --- | --- | --- | --- | --- | --- | --- |
| COc1ccc2ccc(O)c(C(c3cccc4ccccc34)N3CCCCC3)c2c1 (stereo not given) | > 512 µg/mL | > 512 µg/mL | > 512 µg/mL | > 512 µg/mL | > 512 µg/mL | > 512 µg/mL | > 512 µg/mL | > 512 µg/mL | > 512 µg/mL | > 512 µg/mL |
| Oc1ccc2ccccc2c1C(c1ccc(Br)s1)N1CCCCC1 (stereo not given) | > 512 µg/mL | > 512 µg/mL | 16 µg/mL (≈ 39.8 µM) | > 512 µg/mL | 8 µg/mL (≈ 19.9 µM) | > 512 µg/mL | > 512 µg/mL | > 512 µg/mL | > 512 µg/mL | 16 µg/mL (≈ 39.8 µM) |
| COc1ccc2ccc(O)c(C(c3cccs3)N3CCCCC3)c2c1 (stereo not given) | > 512 µg/mL | > 512 µg/mL | 32 µg/mL (≈ 90.5 µM) | > 512 µg/mL | 16 µg/mL (≈ 45.3 µM) | > 512 µg/mL | > 512 µg/mL | > 512 µg/mL | > 512 µg/mL | 16 µg/mL (≈ 45.3 µM) |
| COc1ccc2ccc(O)c(C(c3cccc4ccccc34)N3CCC(C)CC3)c2c1 (stereo not given) | > 512 µg/mL | > 512 µg/mL | > 512 µg/mL | > 512 µg/mL | > 512 µg/mL | > 512 µg/mL | > 512 µg/mL | > 512 µg/mL | > 512 µg/mL | > 512 µg/mL |
| Oc1ccc2cc(Br)ccc2c1C(c1cccs1)N1CCCCC1 (stereo not given) | > 512 µg/mL | > 512 µg/mL | 16 µg/mL (≈ 39.8 µM) | > 512 µg/mL | 8 µg/mL (≈ 19.9 µM) | > 512 µg/mL | > 512 µg/mL | > 512 µg/mL | > 512 µg/mL | 8 µg/mL (≈ 19.9 µM) |
| Oc1ccc2ccccc2c1C(c1cccs1)N1CCCCC1 (stereo not given) | > 512 µg/mL | > 512 µg/mL | 32 µg/mL (≈ 98.9 µM) | > 512 µg/mL | 16 µg/mL (≈ 49.5 µM) | > 512 µg/mL | > 512 µg/mL | > 512 µg/mL | > 512 µg/mL | 8 µg/mL (≈ 24.7 µM) |
| Oc1ccc2ccccc2c1C(c1cccs1)N1CCCC1 (stereo not given) | > 512 µg/mL | > 512 µg/mL | 32 µg/mL (≈ 103 µM) | > 512 µg/mL | 32 µg/mL (≈ 103 µM) | > 512 µg/mL | > 512 µg/mL | > 512 µg/mL | > 512 µg/mL | 32 µg/mL (≈ 103 µM) |
| COc1ccc2ccc(O)c(C(c3ccccn3)N3CCC(C)CC3)c2c1 (stereo not given) | > 512 µg/mL | > 512 µg/mL | > 512 µg/mL | > 512 µg/mL | > 512 µg/mL | > 512 µg/mL | > 512 µg/mL | > 512 µg/mL | > 512 µg/mL | > 512 µg/mL |
| CC1CCN(C(c2cccc(Cl)c2)c2c(O)ccc3cc(Br)ccc23)CC1 (stereo not given) | > 512 µg/mL | > 512 µg/mL | > 512 µg/mL | > 512 µg/mL | > 512 µg/mL | > 512 µg/mL | > 512 µg/mL | > 512 µg/mL | > 512 µg/mL | > 512 µg/mL |
| CC1CCN(C(c2cccs2)c2c(O)ccc3ccccc23)CC1 (stereo not given) | > 512 µg/mL | > 512 µg/mL | 16 µg/mL (≈ 47.4 µM) | > 512 µg/mL | 8 µg/mL (≈ 23.7 µM) | > 512 µg/mL | > 512 µg/mL | > 512 µg/mL | > 512 µg/mL | 8 µg/mL (≈ 23.7 µM) |
| CN1CCN(C(c2cccs2)c2c(O)ccc3ccccc23)CC1 (stereo not given) | > 512 µg/mL | > 512 µg/mL | 32 µg/mL (≈ 94.5 µM) | > 512 µg/mL | 32 µg/mL (≈ 94.5 µM) | > 512 µg/mL | > 512 µg/mL | > 512 µg/mL | > 512 µg/mL | 32 µg/mL (≈ 94.5 µM) |
| COc1ccc2ccc(O)c(C(c3ccccc3)N3CCC(C)CC3)c2c1 (stereo not given) | > 512 µg/mL | > 512 µg/mL | > 512 µg/mL | > 512 µg/mL | 8 µg/mL (≈ 22.1 µM) | > 512 µg/mL | > 512 µg/mL | > 512 µg/mL | > 512 µg/mL | > 512 µg/mL |
| Oc1ccc2cc(Br)ccc2c1C(c1ccccc1)N1CCCCC1 (stereo not given) | > 512 µg/mL | > 512 µg/mL | > 512 µg/mL | > 512 µg/mL | > 512 µg/mL | > 512 µg/mL | > 512 µg/mL | > 512 µg/mL | > 512 µg/mL | > 512 µg/mL |
| Oc1ccc2cc(Br)ccc2c1C(c1cccc(Cl)c1)N1CCCCC1 (stereo not given) | > 512 µg/mL | > 512 µg/mL | > 512 µg/mL | > 512 µg/mL | 8 µg/mL (≈ 18.6 µM) | > 512 µg/mL | > 512 µg/mL | > 512 µg/mL | > 512 µg/mL | > 512 µg/mL |
| COc1ccc2ccc(O)c(C(c3ccccc3)N3CCCCC3)c2c1 (stereo not given) | > 512 µg/mL | > 512 µg/mL | > 512 µg/mL | > 512 µg/mL | > 512 µg/mL | > 512 µg/mL | > 512 µg/mL | > 512 µg/mL | > 512 µg/mL | > 512 µg/mL |
| Oc1ccc2ccccc2c1C(c1cccs1)N1CCOCC1 (stereo not given) | > 512 µg/mL | > 512 µg/mL | 32 µg/mL (≈ 98.3 µM) | > 512 µg/mL | 32 µg/mL (≈ 98.3 µM) | > 512 µg/mL | > 512 µg/mL | > 512 µg/mL | > 512 µg/mL | 32 µg/mL (≈ 98.3 µM) |
| CC1CCN(C(c2cccc3ccccc23)c2c(O)ccc3cc(Br)ccc23)CC1 (stereo not given) | > 512 µg/mL | > 512 µg/mL | > 512 µg/mL | > 512 µg/mL | > 512 µg/mL | > 512 µg/mL | > 512 µg/mL | > 512 µg/mL | > 512 µg/mL | > 512 µg/mL |
| CC1CCN(C(c2ccccc2)c2c(O)ccc3cc(Br)ccc23)CC1 (stereo not given) | > 512 µg/mL | > 512 µg/mL | > 512 µg/mL | > 512 µg/mL | > 512 µg/mL | > 512 µg/mL | > 512 µg/mL | > 512 µg/mL | > 512 µg/mL | > 512 µg/mL |
| CN(C)C(c1cccs1)c1c(O)ccc2ccccc12 (stereo not given) | > 512 µg/mL | > 512 µg/mL | 16 µg/mL (≈ 56.5 µM) | > 512 µg/mL | 16 µg/mL (≈ 56.5 µM) | > 512 µg/mL | > 512 µg/mL | > 512 µg/mL | 128 µg/mL (≈ 452 µM) | 16 µg/mL (≈ 56.5 µM) |
| Oc1ccc2ccccc2c1C(c1cccs1)N1CCN(c2ccccc2)CC1 (stereo not given) | > 512 µg/mL | > 512 µg/mL | > 512 µg/mL | > 512 µg/mL | 64 µg/mL (≈ 160 µM) | > 512 µg/mL | > 512 µg/mL | > 512 µg/mL | > 512 µg/mL | 16 µg/mL (≈ 39.9 µM) |
| Oc1ccc2cc(Br)ccc2c1C(c1cccc2ccccc12)N1CCCCC1 (stereo not given) | > 512 µg/mL | > 512 µg/mL | > 512 µg/mL | > 512 µg/mL | > 512 µg/mL | > 512 µg/mL | > 512 µg/mL | > 512 µg/mL | > 512 µg/mL | > 512 µg/mL |
| COc1ccc2ccc(O)c(C(c3cccs3)N3CCC(C)CC3)c2c1 (stereo not given) | > 512 µg/mL | > 512 µg/mL | 64 µg/mL (≈ 174 µM) | > 512 µg/mL | 16 µg/mL (≈ 43.5 µM) | > 512 µg/mL | > 512 µg/mL | > 512 µg/mL | > 512 µg/mL | 16 µg/mL (≈ 43.5 µM) |
